Patent publication US7022718B2, “Pyridine and pyrimidine derivatives” (Hoffmann-La Roche Inc., priority 2002, dated 2006)

biological target: human DPP-IV (Homo sapiens, UniProt P27487); test: DPP-IV activity assay (fluorometric / colorimetric), IC50 determination; details: not given
Sequence (P27487 31-766): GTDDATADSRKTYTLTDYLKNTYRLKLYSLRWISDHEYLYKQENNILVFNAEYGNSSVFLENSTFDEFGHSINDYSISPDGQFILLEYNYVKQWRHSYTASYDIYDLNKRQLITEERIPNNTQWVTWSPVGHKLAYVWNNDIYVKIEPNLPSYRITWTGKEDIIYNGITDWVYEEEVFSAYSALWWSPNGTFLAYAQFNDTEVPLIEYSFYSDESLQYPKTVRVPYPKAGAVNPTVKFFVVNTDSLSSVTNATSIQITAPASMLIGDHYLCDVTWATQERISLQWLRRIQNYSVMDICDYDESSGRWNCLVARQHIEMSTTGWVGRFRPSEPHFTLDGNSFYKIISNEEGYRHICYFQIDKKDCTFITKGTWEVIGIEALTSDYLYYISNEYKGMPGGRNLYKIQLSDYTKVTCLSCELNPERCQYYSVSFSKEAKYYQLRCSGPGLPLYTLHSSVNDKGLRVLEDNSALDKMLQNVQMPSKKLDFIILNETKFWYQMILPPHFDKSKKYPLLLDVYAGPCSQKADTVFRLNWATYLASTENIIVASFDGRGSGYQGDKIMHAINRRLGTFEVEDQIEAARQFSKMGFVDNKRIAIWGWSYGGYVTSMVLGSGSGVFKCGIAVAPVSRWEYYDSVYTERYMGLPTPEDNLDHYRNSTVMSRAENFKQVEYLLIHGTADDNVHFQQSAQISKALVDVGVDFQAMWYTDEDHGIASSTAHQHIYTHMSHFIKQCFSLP

SMILES	IC50 [nM]
Cc1ccc(-c2nc(-c3ccccc3)nc(N)c2CN)c(C)c1 [Example 11, 5-Aminomethyl-6-(2,4-dimethyl-phenyl)-2-phenyl-pyrimidin-4-ylamine]	172
CCc1ccc(-c2nc(-c3ccccc3)nc(N)c2CN)cc1 [Example 43, 5-Aminomethyl-6-(4-ethyl-phenyl)-2-phenyl-pyrimidin-4-ylamine]	389
CNCc1c(N)nc(-c2ccccc2)nc1-c1ccc(Cl)cc1Cl [Example 76, 6-(2,4-Dichloro-phenyl)-5-methylaminomethyl-2-phenyl-pyrimidin-4-ylamine]	391
Cc1c(-c2ccccc2)nc(N)c(CN)c1-c1ccc(Cl)cc1Cl [Example 79, 3-Aminomethyl-4-(2,4-dichloro-phenyl)-5-methyl-6-phenyl-pyridin-2-ylamine]	873

Other lines, results leading:

IC50 [nM]	SMILES
0.7	NCc1c(N)nc(-c2cc3ccccc3o2)nc1-c1ccc(Cl)cc1Cl [Example 16, 5-Aminomethyl-2-benzofuran-2-yl-6-(2,4-dichloro-phenyl)-pyrimidin-4-ylamine]
3	NCc1c(N)nc(N2CCCCCC2)nc1-c1ccc(Cl)cc1Cl [Example 20, 5-Aminomethyl-2-azepan-1-yl-6-(2,4-dichloro-phenyl)-pyrimidin-4-ylamine]
13	CSc1nc(N)c(CN)c(-c2ccc(Cl)cc2Cl)n1 [Example 23, 5-Aminomethyl-6-(2,4-dichloro-phenyl)-2-methylsulfanyl-pyrimidin-4-ylamine]

same assay, conditions: natural human DPP-IV from human plasma pool or recombinant human DPP-IV; 37° C., pH 7.8

IC50 [nM]	SMILES
0.2	NCc1c(N)nc(-c2cccc(F)c2)nc1-c1ccc(Cl)cc1Cl [Example 13, 5-Aminomethyl-6-(2,4-dichloro-phenyl)-2-(3-fluoro-phenyl)-pyrimidin-4-ylamine]
